These results are taken from ChEMBL document CHEMBL1201862, “PubChem BioAssay data set” (2004).

Molecules are shown by their SMILES.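 How tested: cells in 96-well plates exposed to compound for 48 hours at five concentrations. GI50 = concentration required for 50% inhibition of growth.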 Activity calls are given as the source filed them. No stated cut-off is given here; in the data, active = GI50 up to about 1.1 µM and inactive = higher. Where a SMILES comes first, the peptide text is derived from it. [ ]: non-standard residue; d: D form. The star is where a group is joined. ξ: configuration not given here. ξF = NC(Cc1ccccc1)C(=O)O; Cbz = O=C(OCc1ccccc1)*; Aib = CC(C)(N)C(=O)O

Common to all, as to test: growth of human tumour cells (NCI), 48 h
The test system of assay [1] is Hs-578T.
Assay [2] relates to SK-MEL-2.
Assay [3] concerns Malme-3M.
Assay [4] relates to A498.
The subject of assay [5] is T47D.
The test system of assay [6] is SK-MEL-5.
Assay [7] has as its system RXF 393.
For assay [8], the system named is LOX IMVI.
Assay [9] deals with HOP-92.
In assay [10] the test system is SNB-19.
Assay [11] concerns BT-549.
Assay [12] deals with M14.
For assay [13], the system named is KM12.
In assay [14] the test system is SK-OV-3.
For assay [15], the system named is MDA-N.
In assay [16] the test system is SNB-75.
Assay [17] has as its system MCF7.
The subject of assay [18] is COLO 205.
Assay [19] has as its system XF498.
Assay [20] relates to SNB-78.

As to `O=[N+]([O-])c1ccc(Nc2nc3ccccc3s2)cc1`, the GI50 in assay [1] is 29.9 µM (inactive); in [2], 25.5 µM (inactive); in assay [3] it was 15.9 µM (inactive); in assay [4], 30.4 µM (inactive); in assay [5], 3.03 µM (inactive); in assay [6] it was 21.6 µM (inactive). Besides, the GI50 in [7] was 14.7 µM (inactive); in [8], 14.9 µM (inactive); in [9] it was 26.2 µM (inactive); in [10] it was 38.5 µM (inactive); in [11] it was 27.2 µM (inactive); in assay [12], 26.7 µM (inactive). Moreover, in assay [13], the GI50 is 51.6 µM (inactive).
Take `CN(C)C(=S)SCc1ccccc1`: the GI50 in [14] is > 100 µM (inactive); in [1] it was > 100 µM (inactive); in [2], 83.4 µM (inactive); in assay [15], > 100 µM (inactive); in assay [3] it was 27.2 µM (inactive); in [4], 62.5 µM (inactive). Also, the GI50 in assay [5] was 0.033 µM (active); in assay [16], 2.41 µM (inactive); in assay [6] it was > 100 µM (inactive); in assay [17], > 100 µM (inactive); in assay [7], 3.85 µM (inactive); in assay [8] it was > 100 µM (inactive). In addition, the GI50 in assay [9] is 88.3 µM (inactive); in [10], > 100 µM (inactive); in [11], 87.9 µM (inactive); in assay [12], > 100 µM (inactive); in [13], > 100 µM (inactive); in [18] it was > 100 µM (inactive).
`CCCOC(=O)CCC(NC(=O)c1ccc(Nc2nc3ccccc3nc2-c2cccs2)cc1)C(=O)OCCC` (stereo unspecified): the GI50 in [14] is > 100 µM (inactive); in assay [2], 24.8 µM (inactive); in [3], 19.1 µM (inactive); in assay [19], 79.8 µM (inactive); in assay [6] it was 72.1 µM (inactive); in [7], 67.9 µM (inactive). Besides, the GI50 was > 100 µM (inactive) in [8]; > 100 µM (inactive) in [20]; 29.2 µM (inactive) in assay [9]; > 100 µM (inactive) in assay [10]; > 100 µM (inactive) in assay [13]; > 100 µM (inactive) in assay [18].
For the compound `Cc1cccc2c1Sc1ccccc1C2NC(=O)CN(C)C` (stereo unspecified), the GI50 was > 100 µM (inactive) in assay [14]; 16 µM (inactive) in assay [16]; > 100 µM (inactive) in [19]; 36.1 µM (inactive) in [6]; 53.6 µM (inactive) in [7]; > 100 µM (inactive) in assay [8]. In addition, the GI50 in assay [20] was > 100 µM (inactive); in assay [10], > 100 µM (inactive); in assay [12], 41.4 µM (inactive); in assay [18], > 100 µM (inactive).
On to `Nc1nc(=S)[nH]c2nc3c(c(-c4ccccc4)c12)CCCC3`, for which the GI50 in assay [14] was > 100 µM (inactive); in [1], 51.9 µM (inactive); in assay [15], > 100 µM (inactive); in assay [3], > 100 µM (inactive); in [5], 60.1 µM (inactive); in assay [16] it was 34.8 µM (inactive). Also, the GI50 in assay [6], in [17], in assay [8], in assay [10], in assay [11] and in [12] was > 100 µM (inactive) throughout. Besides, the GI50 in assay [13] and in assay [18] was > 100 µM (inactive) in each case.
As for `C=CC(Br)(CBr)CCC(Cl)C(C)C` (stereo unspecified), the GI50 is 4.25 µM (inactive) in [14]; 2.58 µM (inactive) in assay [1]; 1.92 µM (inactive) in assay [2]; 1.45 µM (inactive) in assay [15]; 1.58 µM (inactive) in assay [3]; 13.7 µM (inactive) in [4]. Besides, the GI50 in assay [16] is 1.49 µM (inactive); in [6], 1.85 µM (inactive); in assay [17] it was 1.39 µM (inactive); in [7], 1.6 µM (inactive); in assay [8], 1.15 µM (inactive); in assay [9], 2.04 µM (inactive). For the same compound, the GI50 is 2.2 µM (inactive) in assay [10]; 1.6 µM (inactive) in assay [11]; 1.7 µM (inactive) in assay [12]; 1.47 µM (inactive) in [13]; 3.38 µM (inactive) in [18].
For the compound `COc1ccc(NC2=NCCO2)c2ccccc12`, the GI50 in assay [14], in assay [1], in assay [2], in assay [15], in assay [3] and in assay [4] was > 10 µM (inactive) throughout. In addition, the GI50 in assay [5], in assay [16], in assay [6], in assay [17], in assay [7] and in assay [8] was > 10 µM (inactive) each time. Further, the GI50 in assay [10], in [12], in assay [13] and in assay [18] was > 10 µM (inactive) each time.
Consider `O=c1c2cc(I)ccc2nc(-c2cccs2)n1Nc1ccccc1`, for which the GI50 is 13.9 µM (inactive) in assay [14]; 0.33 µM (active) in [2]; 6.79 µM (inactive) in [6]; 39.3 µM (inactive) in [7]; 0.117 µM (active) in assay [8]; 23.5 µM (inactive) in assay [10]. Besides, the GI50 in [11] is 3.14 µM (inactive); in [12] it was 1.5 µM (inactive); in [13] it was 4.14 µM (inactive); in [18] it was 1.64 µM (inactive).
On to `COC(=O)C(C)(C)NC(=O)C(Cc1ccccc1)NC(=O)C(C)(C)NC(=O)OCc1ccccc1` (stereo unspecified) (Cbz-[Aib]-[ξF]-[Aib]-OMe), for which the GI50 is > 100 µM (inactive) in [14]; > 100 µM (inactive) in assay [15]; > 100 µM (inactive) in [3]; 24.3 µM (inactive) in assay [4]; > 100 µM (inactive) in assay [5]; > 100 µM (inactive) in assay [6]. For the same compound, the GI50 in [17], in assay [8], in assay [10], in [12] and in assay [18] was > 100 µM (inactive) throughout.
